Results as given in patent US6897228B2, “Pyridoxine and pyridoxal analogues: new uses” (Medicure International Inc., priority 2000, dated 2005).

Key:
[1] = test system: male Sprague-Dawley rats, occlusion of the left coronary artery; assay: In vivo hemodynamic changes after coronary artery ligation; settings: day 21 after coronary ligation; 10 mg/kg daily by gastric tube
[2] = test system: platelets (platelet rich plasma); assay: Inhibition of platelet aggregation (aggregometer, platelet rich plasma); format: cell-based; settings: for Extent of aggregation as a percentage amplitude, 1 μg/mL collagen: agonist 1 μg/mL collagen; for Extent of aggregation as a percentage amplitude, 4 μM ADP: agonist 4 μM ADP; for Extent of aggregation as a percentage amplitude, 5 μg/mL collagen: agonist 5 μg/mL collagen; for Extent of aggregation as a percentage amplitude, 12 μM TRAP: agonist 12 μM TRAP
Protocol: Platelet rich plasma (PRP) was obtained by drawing whole blood into sodium citrate tubes (3.2%) and centrifuging at 700 rpm for 10 minutes. Platelet poor plasma (PPP) was obtained by centrifuging the remainder of the sample ntil the platelets were removed (3200 rpm for 10 minutes). The PRP was adjusted to a count of 280×10^9/L using a mixture of PRP and PPP. The incubation mixture consisted of 200 μL of platelets and 25 μL of the appropriate compound (18 mM stock for a final concentration of 2 mM and 4.5 mM stock for a final concentration of 500 μM), rendering an approximate final platelet count in the incubation mixture of 250×10^9/L. After incubation (30 minutes at room temperature, the cuvettes were incubated for 3 minutes at 37° C., transferred to the mixing wells and after the baselines transmittances were measured in an aggregometer (Chrono-Log 4), 25 μL of agonist was added to give a final concentration of 4 μM ADP, 1 μg/mL collagen, 5 μg/mL collagen or 12 μM thrombin receptor activating peptide (TRAP). Final transmittances were then measured in the aggregometer (lower percent transmittance represents higher aggregation). […] Table 24-1 gives the results of the extent of aggregation for several compounds as percentage amplitude read directly from the aggregometer.

[3] = test system: male Sprague-Dawley rats, occlusion of the left coronary artery; assay: In vivo hypertrophy after coronary artery ligation; settings: rat model of Example 20
Protocol: (§1) Food and water were supplied ad libitum. […] Hemodynamic and histological assessments were made.
Hypertrophy is a physiological condition of enlargement (increased mass) due to increased stress. Cardiac hypertrophy is assessed by calculating the heart to body mass ratio. Treatment with PLP or compound XXIIb results in a decrease in cardiac hypertrophy, in the rat model described in Example 20.

[4] = test system: male Sprague-Dawley rats, occlusion of the left coronary artery; assay: In vivo infarct size and scar mass after coronary artery ligation; set-up: species or system rat; settings: after 21 days, 10 mg/kg daily by gastric tube; for infarct size (as a percentage of left ventricle size): untreated control about 45
Protocol: as §1
After 21 days, once the hemodynamic data were obtained, the animals were sacrificed and both average dry scar mass to left ventricle mass (n=5/group) and infarct size (n=5/group) were measured. For infarct size measurement, hearts from the untreated and PLP/compound XXIIb-treated groups were fixed in formalin and embedded in paraffin. Six evenly spaced slices were cut across the left ventricle. […] sections were cut from each slice and mounted. Sections were stained with Trichrome to discriminate between fibrous scar and noninfarcted tissue. Using the free-drawing line tool in Scion Image v4.02b, infarct internal perimeter and left ventricle internal perimeter lengths were traced per oculum for each section. Noteworthy transmural scars were taken into account. Infarct size was then expressed as the average scar perimeter/ventricle perimeter ratio. Scar mass measurements were obtained by drying excised scar tissue and left ventricles at 50-60° C. for 72 hours.

| Compound | +dP/dt (rate of contraction) [1] | LVEDP in response to coronary occlusion [1] | −dP/dt (rate of relaxation) [1] | Extent of aggregation as a percentage amplitude, 1 μg/mL collagen ([2]; compound 500 μM) | Extent of aggregation as a percentage amplitude, 4 μM ADP ([2]; compound 500 μM) | Extent of aggregation as a percentage amplitude, 5 μg/mL collagen ([2]; compound 500 μM) | Extent of aggregation as a percentage amplitude, 12 μM TRAP ([2]; compound 500 μM) | Extent of aggregation as a percentage amplitude, 1 μg/mL collagen ([2]; compound 2 mM) | Extent of aggregation as a percentage amplitude, 4 μM ADP ([2]; compound 2 mM) | Extent of aggregation as a percentage amplitude, 5 μg/mL collagen ([2]; compound 2 mM) | Extent of aggregation as a percentage amplitude, 12 μM TRAP ([2]; compound 2 mM) | cardiac hypertrophy (heart to body mass ratio) [3] | dry scar to left ventricle mass ratio [4] | infarct size (as a percentage of left ventricle size) [4] |
| --- | --- | --- | --- | --- | --- | --- | --- | --- | --- | --- | --- | --- | --- | --- |
| 4-methylimidazole pyridoxine [XXIIb] | recoveries | reduced rises | recoveries | 79% | 59% | 82% | 91% | 32% | 46% | 77% | 84% | decrease | reductions similar in magnitude to that seen in the PLP group | reduced |
| Cc1ncc(COP(=O)(O)O)c(C=O)c1O [PLP, 3-hydroxy-2-methyl-5-[(phosphonooxy)methyl]-4-pyridine-carboxaldehyde, reference compound] | recoveries | reduced rises | recoveries | 89% | 69% | 87% | 90% | 84% | 16% | 89% | 91% | decrease | reduced | reduced |
| Cc1ncc(CNc2ccc(C(=N)N)cc2)c(CO)c1O [Compound XXXV] |  |  |  | 83% | 70% | 75% | 90% | 79% | 15% | 67% | 11% |  |  |  |
